The values below come from US20020090352A1, “Compositions and methods for use in modulating immune system function” (priority 2000, published 2002).

The target of one assay is T1, RARα-RXRα heterodimer (Homo sapiens, UniProt P10276+P19793). Further: key: '+' = agonist; '(+)' = weak agonist; '−' = antagonist; '0' = absence of agonist and antagonist activities.
T1 construct: expressed in transfected cells
T1 sequence (P10276 1-462): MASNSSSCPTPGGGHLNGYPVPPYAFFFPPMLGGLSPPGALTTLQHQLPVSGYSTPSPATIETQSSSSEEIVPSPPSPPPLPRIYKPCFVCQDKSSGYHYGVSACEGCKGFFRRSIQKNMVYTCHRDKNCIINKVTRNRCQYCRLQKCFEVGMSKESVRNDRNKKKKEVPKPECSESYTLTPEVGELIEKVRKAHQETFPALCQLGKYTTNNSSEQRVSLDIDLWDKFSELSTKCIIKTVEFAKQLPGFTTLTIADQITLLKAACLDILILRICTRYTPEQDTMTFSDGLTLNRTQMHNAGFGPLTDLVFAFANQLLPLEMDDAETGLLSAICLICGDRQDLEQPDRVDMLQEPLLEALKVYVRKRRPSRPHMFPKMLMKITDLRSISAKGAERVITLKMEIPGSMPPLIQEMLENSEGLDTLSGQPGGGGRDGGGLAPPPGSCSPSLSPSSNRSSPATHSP
T1 sequence (P19793 1-462): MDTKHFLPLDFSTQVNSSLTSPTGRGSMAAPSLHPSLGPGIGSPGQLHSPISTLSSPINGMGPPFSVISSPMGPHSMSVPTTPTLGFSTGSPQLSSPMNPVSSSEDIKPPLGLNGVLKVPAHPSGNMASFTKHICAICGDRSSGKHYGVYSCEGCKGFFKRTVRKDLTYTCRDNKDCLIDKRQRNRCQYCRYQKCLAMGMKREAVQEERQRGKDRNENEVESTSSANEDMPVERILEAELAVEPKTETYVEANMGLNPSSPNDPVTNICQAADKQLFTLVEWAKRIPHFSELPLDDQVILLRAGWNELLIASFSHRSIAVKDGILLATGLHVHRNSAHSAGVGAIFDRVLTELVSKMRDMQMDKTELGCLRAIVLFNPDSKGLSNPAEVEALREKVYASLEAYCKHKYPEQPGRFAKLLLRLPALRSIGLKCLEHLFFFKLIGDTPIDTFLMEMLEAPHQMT
The settings on record: retinoid activity, transient transfection; cited from earlier work.

Another assay addresses T2, RARα AF2 (Homo sapiens, UniProt P10276).
T2 construct: expressed in transfected cells
T2 sequence (P10276 183-417 limits assumed): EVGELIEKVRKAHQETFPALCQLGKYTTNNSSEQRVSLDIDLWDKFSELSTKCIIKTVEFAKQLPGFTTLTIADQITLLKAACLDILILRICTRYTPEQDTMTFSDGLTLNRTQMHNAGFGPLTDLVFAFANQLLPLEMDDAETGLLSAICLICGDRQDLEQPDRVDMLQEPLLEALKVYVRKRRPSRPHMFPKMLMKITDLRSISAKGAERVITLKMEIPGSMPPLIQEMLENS
The settings on record: retinoid activity, reporter cells; cited from earlier work.

A further assay deals with T3, RARβ AF2 (Homo sapiens, UniProt P10826).
T3 construct: expressed in transfected cells
T3 sequence (P10826 183-417 limits assumed): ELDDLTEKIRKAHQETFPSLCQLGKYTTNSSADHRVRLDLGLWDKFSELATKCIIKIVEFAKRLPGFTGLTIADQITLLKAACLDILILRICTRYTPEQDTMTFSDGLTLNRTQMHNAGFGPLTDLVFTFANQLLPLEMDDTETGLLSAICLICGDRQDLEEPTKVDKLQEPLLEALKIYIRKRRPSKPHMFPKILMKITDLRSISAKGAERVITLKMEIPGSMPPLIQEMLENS
The settings on record: retinoid activity, reporter cells; cited from earlier work.

In another assay the target is T4, RARγ AF2 (Homo sapiens, UniProt P13631). Further: key: '+' = agonist; '(+)' = weak agonist; '−' = antagonist; '0' = absence of agonist and antagonist activities.
T4 construct: expressed in transfected cells
T4 sequence (P13631 185-419 limits assumed): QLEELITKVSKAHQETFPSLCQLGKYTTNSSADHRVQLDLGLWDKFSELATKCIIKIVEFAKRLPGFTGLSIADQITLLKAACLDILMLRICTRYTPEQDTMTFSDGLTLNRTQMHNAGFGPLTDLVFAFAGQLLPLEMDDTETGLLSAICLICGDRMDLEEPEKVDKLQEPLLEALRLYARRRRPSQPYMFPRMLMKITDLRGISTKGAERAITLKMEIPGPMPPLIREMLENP
The settings on record: retinoid activity, reporter cells; cited from earlier work.

The test system of another assay is RXR AF2. The settings on record: retinoid activity, reporter cells; cited from earlier work.
Assay [1] deals with immature LC (Langerhans cells). The assay is described as follows: Apoptosis of immature LC, flow cytometry of PI stained nuclei (sub 2N particles) / annexin V. The assay is classed as cell-based, human. To be noted: for induction of apoptosis / death of immature LC by the substance on its own: no TNFα; for induction of apoptosis / death of immature LC by the substance on its own / inhibition of retinoid-induced apoptosis / cell death of immature LC: result in words.

The next assay has as its system NF-κB complexes. The assay is described as follows: Electrophoretic mobility shift assay of nuclear NF-κB complexes in immature LC. The assay is classed as cell-based, human. The settings on record: retinoid 1 μM 6 h, then TNFα 50 ng/ml 30 min; result in words.
Assay [2] has as its system immature LC (Langerhans cells). The assay is described as follows: Activation of immature LC: HLA-DR and CD86 expression by flow cytometry. The assay is classed as cell-based, human. Details: class II or CD86 upregulation on immature LC: dose or concentration left out as unconfirmed. The settings on record: for activation of immature LC (class II / CD86, DRhi-CD86hi) in the presence of TNFα: TNFα 1-10 ng/ml. The method, then: Immature LC were cultured with retinol or vehicle and/or TNFα for 40 h. Cells were washed and incubated with HLA-DR-FITC and CD86-PE or isotype controls for 15 min at 4° C. 10^4 events were then analyzed with a FACScalibur (Becton Dickinson) using CellQuest software (Becton Dickinson). % are given for DRhi CD86hi cells gated as indicated. Data are representative of three experiments on different donors.
FIG. 3A: Day 6 immature LC were cultured for 40 h with TNFα and/or retinoids or vehicle as indicated. Cells were washed and stained with HLA-DR-FITC and CD86-PE or isotype controls for 15 min at 4° C. 10^4 events were then analyzed with a FACScalibur (Becton Dickinson) using CellQuest software (Becton Dickinson). Data are given for DRhi/CD86 hi cells gated as indicated, and are representative of 10 experiments on different donors.
Percentages of DRhi/CD86 hi cells are represented and results are expressed as the mean±SD of at last three experiments on different donors.
Flow Cytometry Analysis. 1×10^5 cells were incubated in 96-well plates (Becton Dickinson Labware, Franklin Lakes, N.J.) for 15 min at 4 ° C. in PBS, 2% human AB serum, and 0.01 M NaN3, with FITC-conjugated anti-DR (Immunotech, Marseille, France) and PE-conjugated CD86 (Pharmingen, San Diego, Calif.) at the appropriate concentration, or with control isotype-matched irrelevant mAbs at the same concentration. After washing, 10^4 events were analyzed with a FACScalibur (Becton Dickinson Immunocytometry Systems, Mountain View, Calif.) using CellQuest software.
(In general: Flow cytometry measures light scatter and fluorescence of single cells or particles in a stream.)

The target of a further assay is T5, RXRα homodimer [(RXR)2] (Homo sapiens, UniProt P19793).
T5 construct: expressed in transfected cells
T5 sequence (P19793 1-462): T1 sequence (P19793 1-462)
To be noted: retinoid activity, transient transfection; cited from earlier work.

The test system of another assay is T-cells stimulated by LC. The assay is classed as cell-based, human.
[3] abbreviates: 1 nM, two days in culture, mean ± SD.
Where [4] appears, read: 10 nM, two days in culture, mean ± SD.
The mark [5] stands for this setting: 100 nM, two days in culture, mean ± SD.
[6] abbreviates: 1 μM, two days in culture, mean ± SD.
[7] abbreviates: Table 3C, retinoid 1 μM in medium, no inhibitor.

“Also recorded” adds a separate entry of the source. Marks after values point to notes of the source that are not given here.
Wherever RARα AF2 is given: key: '+' = agonist; '(+)' = weak agonist; '−' = antagonist; '0' = absence of agonist and antagonist activities.
Wherever RARβ AF2 is given: key: '+' = agonist; '(+)' = weak agonist; '−' = antagonist; '0' = absence of agonist and antagonist activities.

Regarding `CC1(C)C(=O)C(C)(C)c2cc(C(=O)Nc3ccc(C(=O)O)cc3)ccc21` [Compound I, 4-[[(2,3-Dihydro-1,1,3,3-tetramethyl-2-oxo-1H-inden-5-yl)carbonyl]amino]benzoic acid], the “RARα-RXR DR5” value at RARα-RXRα heterodimer is “+”. Besides, at RARα AF2, the “RARα AF2” value is on record as “+”. Besides, the “RARβ AF2” value on RARβ AF2 is recorded as 0. For the same compound, at RARγ AF2, the “RARγ AF2” value is 0. The “RXR AF2” value with RXR AF2 is recorded as 0. Further, the “percentage of apoptotic (<2N) particles” value was “≦5%” in assay [1] (setting [3]); “≦5%” in [1] (setting [4]); 18 ± 3^(b) % in assay [1] (50 nM, two days in culture, mean ± SD); 6 ± 3% in assay [1] (100 nM SR11237 + 1 nM ligand); 25 ± 10^(a) % in assay [1] (100 nM SR11237 + 10 nM ligand); 32 ± 7% in assay [1] (100 nM SR11237 + 100 nM ligand). Moreover, the “percentage of apoptotic (<2N) particles” value in assay [1] (100 nM SR11237 + 1 μM ligand) worked out at 47 ± 10%; in assay [1] (setting [5]), 27 ± 9%; in assay [1] (setting [6]), 37 ± 7%; in assay [1] (Table 3C, Compound I 100 nM + SR11237 100 nM in medium, no inhibitor), 38 ± 5%; in assay [1] (setting [7]), 38 ± 8%. Moreover, the “induction of apoptosis / death of immature LC by the substance on its own” value (“induction of apoptosis / death … on its own” for short) in assay [1] was “apoptosis was induced”. Besides, the “nuclear translocation / DNA-binding activity of NF-κB complexes with TNFα” value in the assay with NF-κB complexes is “synergize with TNFα”. In addition, in assay [2] (result in words), the “activation of immature LC (class II / CD86, DRhi-CD86hi) in the presence of TNFα” value is on record as “upregulate”. Further, the “(RXR)2 AF2” value at RXRα homodimer [(RXR)2] is on record as 0.
On to `CC1=C(/C=C/C(C)=C/C=C/C(C)=C/C(=O)O)C(C)(C)CCC1` [tRA, all-trans retinoic acid, reference compound], for which the “RARα AF2” value on RARα AF2 was “+^(a)”. Moreover, the “RARβ AF2” value at RARβ AF2 is “+”. In addition, the “RARγ AF2” value at RARγ AF2 is on record as “+”. In the assay with RXR AF2, the “RXR AF2” value is listed as 0^(a). For the same compound, the “percentage of apoptotic (<2N) particles” value in assay [1] (setting [3]) is on record as “≦5%”; in assay [1] (setting [4]) it was “≦5%”; in assay [1] (setting [5]) it was 14 ± 6^(b) %; in assay [1] (setting [6]) it was 36 ± 10%; in assay [1] (setting [7]) it was 38 ± 10%. Moreover, the “induction of apoptosis / death … on its own” value in [1] was “induced a similar dose- and time-dependent increase in death”. Also, the “nuclear translocation / DNA-binding activity of NF-κB complexes with TNFα” value in the assay with NF-κB complexes is recorded as “synergize with TNFα”. Moreover, the “activation of immature LC (class II / CD86, DRhi-CD86hi) in the presence of TNFα” value in [2] (result in words) was “synergize with TNFα; also recorded: upregulate”. For the same compound, the “class II or CD86 upregulation on immature LC” value in [2] (in the absence or at low concentrations of TNFα) is listed as “did not significantly induce”.
Take `C=C(c1ccc(C(=O)O)cc1)c1cc2c(cc1C)C(C)(C)CC=C2C(C)C` [Compound V, 4-[1-[5,6-Dihydro-3,5,5-trimethyl-8-(1-methylethyl)-2-naphthalenyl]ethenyl]benzoic acid]: the “RARα-RXR DR5” value at RARα-RXRα heterodimer is reported as “−”. Further, the “RARα AF2” value at RARα AF2 is “−”. The “RARβ AF2” value at RARβ AF2 was “−”. Also, the “RARγ AF2” value on RARγ AF2 is given as “−”. In addition, the “RXR AF2” value in the assay on RXR AF2 was “+”. Moreover, the “percentage of apoptotic (<2N) particles” value in assay [1] (setting [3]), in [1] (setting [4]), in assay [1] (setting [5]) and in assay [1] (setting [6]) was “≦5%” each time. Moreover, in assay [1], the “induction of apoptosis / death … on its own” value is “neither SR11237 (Table 3) nor BMS749 exhibited an apoptotic effect”. Besides, the “activation of immature LC (class II / CD86, DRhi-CD86hi) in the presence of TNFα” value in [2] (result in words) is given as “also synergized with TNFα to activate LC”. Moreover, at RXRα homodimer [(RXR)2], the “(RXR)2 AF2” value is “+”.
On to `CC1(C)CC=C(c2cnc3ccccc3c2)c2cc(C(=O)Nc3ccc(C(=O)O)cc3)ccc21` [Compound II, 4-[[[5,6-Dihydro-5,5-dimethyl-8-(3-quinolinyl)-2-naphthalenyl]carbonyl]amino]benzoic acid], for which the “RARα-RXR DR5” value on RARα-RXRα heterodimer is recorded as “−”. The “RARα AF2” value at RARα AF2 was “−^(a)(b)”. Moreover, the “RARβ AF2” value at RARβ AF2 was 0. Also, the “enhancement of antigen presentation to antigen-specific T-cells in synergy with TNFα” value with T-cells stimulated by LC was “synergized with the RXR agonist (SR11237)”. The “RARγ AF2” value on RARγ AF2 is 0. In addition, the “RXR AF2” value in the assay with RXR AF2 was 0. The “percentage of apoptotic (<2N) particles” value in assay [1] (setting [3]), in assay [1] (setting [4]), in [1] (100 nM SR11237 + 1 nM ligand), in assay [1] (100 nM SR11237 + 10 nM ligand), in [1] (100 nM SR11237 + 100 nM ligand) and in [1] (100 nM SR11237 + 1 μM ligand) was “≦5%” in each case. Further, the “percentage of apoptotic (<2N) particles” value in [1] (setting [5]) and in assay [1] (setting [6]) was “≦5%” each time. Also, the “induction of apoptosis / death … on its own” value in [1] is “did not induce”. The figures for the “inhibition of retinoid-induced apoptosis / cell death of immature LC” value in assay [1] and in [1] (listed as Compound H) were “inhibited retinoid-induced apoptosis” and “inhibited”, respectively. For the same compound, in assay [2] (result in words), the “synergy with the RXR agonist SR11237 for TNFα-induced LC activation” value was “synergized with the RXR agonist (SR11237)”. Further, at RXRα homodimer [(RXR)2], the “(RXR)2 AF2” value is on record as 0.
